Laboratory results reported in US10300020B2 (West-Ward Pharmaceuticals International Limited, priority 2005, dated 2019).

Settings: calcium acetate used in Example 1
Source text: In another preferred embodiment, the bulk density is between about 0.30 g/cc to about less than 0.55 g/cc. More preferably the bulk density is between about 0.30 g/cc to about 0.45 g/cc.

Work on `CC(=O)[O-].CC(=O)[O-].[Ca+2]` [calcium acetate] yielded a bulk density of 0.47 g/cc.
